The text below walks through data of paper PMC12311259, “Antifibrotic effects of specific targeting of the 5‐hydroxytryptamine 2B receptor (5‐HT2BR) in murine models and ex vivo models of scleroderma skin” (Arthritis & Rheumatology (Hoboken, N.j.), 2025).

Some results are limits rather than exact numbers.

One experiment deals with T1, Adrenergic α1A (hu) (Homo sapiens, UniProt P35348).
T1 construct: Eurofins Panlabs 302040
Put plainly: Functionality assay, IP1, Eurofins Panlabs 302040. The format is cell-based. From the text: (§1) Effects were considered significant if AM1476's mean value was three or more SDs above the vehicle control mean in the agonist assay or three or more SDs below the positive control agonist (5‐nM α‐methylserotonin) mean in the antagonist assay. AM1476 was screened for selectivity against approximately 200 targets using a Eurofins Panlabs Spectrum screen panel including enzymatic and receptor binding assays.

Experiment [1] deals with cGvHD-induced pulmonary fibrosis. Put plainly: Sclerodermatous cGvHD mouse model, pulmonary fibrosis. It counts as in vivo. On the procedure:
AM1476 was dissolved in sterile distilled water for the ex vivo and in vivo experiments. A concentration of 30 μM was applied for the ex vivo experiment. For the in vivo experiments, 1, 3, or 10 mg/kg was administered orally once or twice daily.
The B10.D2→BALB/c (H‐2d) minor histocompatibility antigen–mismatched model was performed as described.[9], [10] Briefly, female BALB/c (H‐2d) mice were purchased from Janvier. Male B10.D2 (H‐2d) mice were initially purchased from Jackson Laboratory. All mice were maintained in specific pathogen‐free conditions with sterile pellet food and water and a normal day–night cycle. For isolation of unfractionated bone marrow cells, tibial and femoral bones were prepared under sterile conditions. Phosphate buffered saline (PBS) was used to flush bone marrow cells from bone marrow cavities. Subsequently, bone marrow cells were filtered through 70‐μm nylon meshes (BD Biosciences), followed by erythrocyte hemolysis. The remaining bone marrow cells were kept on ice until transplantation. Transplantation of bone marrow cells and splenocytes was performed as follows: Recipient mice (BALB/c [H‐2d]) eight weeks of age received total body irradiation with 750 cGy. Six hours after irradiation, all BALB/c (H‐2d) recipients received bone marrow from either BALB/c (H‐2d) in a syngeneic transplantation manner or B10.D2 (H‐2d) in an allogeneic transplantation manner. For transplantation, 5 × 10[6] splenocytes and 2 × 10[6] bone marrow cells from donor mice were resuspended in 0.2 mL of PBS and injected via tail veins.[9], [10] […] The outcome of treatment was analyzed seven weeks after transplantation. Eight mice per group were analyzed.
Skin samples were fixed in 4% formalin for six hours and embedded in paraffin. […] The dermal thickness was quantified on H&E‐stained sections using images captured with a light microscope (Nikon eclipse 80i) at 100‐fold magnification by manually measuring the distance between the epidermal‐dermal junction and the dermal‐subcutaneous fat junction at four sites per mouse.[15], [16] […] Histologic readouts were evaluation of the fibrotic area as the percentage of the total lung area in sirius red–stained sections (two sections per mouse) and quantification of pulmonary changes using the Ashcroft score (four sections per mouse).[17], [18]
The amount of collagen protein in skin and lung samples was determined by hydroxyproline assay.[19], [20] […] The absorbance was determined at 557 nm with a Spectra MAX 190 microplate spectrophotometer. Absolute values were determined using a standard curved generated with type I collagen (Sigma‐Aldrich).

In experiment [2] the target is T2, Serotonin (5-Hydroxytryptamine) 5-HT3 (hu) (Homo sapiens, UniProt P46098).
T2 construct: Eurofins Panlabs 271910
T2 sequence (P46098 24-478): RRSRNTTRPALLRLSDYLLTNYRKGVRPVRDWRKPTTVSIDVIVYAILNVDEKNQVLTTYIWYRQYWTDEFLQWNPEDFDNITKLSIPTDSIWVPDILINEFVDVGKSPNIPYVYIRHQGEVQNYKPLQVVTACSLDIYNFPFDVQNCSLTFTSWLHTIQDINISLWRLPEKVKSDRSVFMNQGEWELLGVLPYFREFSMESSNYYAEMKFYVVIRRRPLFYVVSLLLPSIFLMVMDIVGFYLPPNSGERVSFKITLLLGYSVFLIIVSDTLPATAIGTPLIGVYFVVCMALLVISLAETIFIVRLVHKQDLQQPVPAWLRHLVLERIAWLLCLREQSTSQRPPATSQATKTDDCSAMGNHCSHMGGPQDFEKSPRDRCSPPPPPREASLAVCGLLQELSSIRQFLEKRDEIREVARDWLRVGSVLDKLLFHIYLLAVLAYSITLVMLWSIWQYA
The experiment can be described thus: Receptor binding, Eurofins Panlabs 271910.
Source text: as §1

For the next experiment, the target named is T3, human 5-HT2AR (Homo sapiens, UniProt P28223).
T3 construct: 355250 (IP1); host or cells: CHO-K1
T3 sequence (P28223 whole entry): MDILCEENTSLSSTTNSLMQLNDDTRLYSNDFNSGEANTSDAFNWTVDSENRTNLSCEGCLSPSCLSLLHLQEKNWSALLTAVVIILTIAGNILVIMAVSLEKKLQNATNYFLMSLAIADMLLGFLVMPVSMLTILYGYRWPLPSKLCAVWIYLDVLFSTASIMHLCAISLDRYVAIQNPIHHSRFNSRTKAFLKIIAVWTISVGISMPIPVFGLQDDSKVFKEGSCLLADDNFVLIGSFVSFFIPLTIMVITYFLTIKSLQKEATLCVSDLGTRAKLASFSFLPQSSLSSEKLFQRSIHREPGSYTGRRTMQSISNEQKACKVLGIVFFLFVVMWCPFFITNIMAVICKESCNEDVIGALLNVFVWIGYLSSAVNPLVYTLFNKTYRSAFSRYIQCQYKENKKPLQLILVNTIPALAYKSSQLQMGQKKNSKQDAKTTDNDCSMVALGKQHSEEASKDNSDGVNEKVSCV
The experiment can be described thus: Functionality assay, HTRF quantification of IP1 accumulation in CHO-K1 cells. The following applies: inhibition of 5-HT (5 nM) induced IP1 response, read-out: IC50, antagonistic activity, human 5-HT2A. The format is cell-based. How it is done:
The binding profile of AM1476 was evaluated for binding to human 5‐HT2AR, 5‐HT2BR, and 5‐HT2CR in radioligand binding assays using Chinese hamster ovary (CHO‐K1) cells overexpressing human receptors (in vitro assays 271650, 271700, and 271800; Eurofins Panlabs Discovery). AM1476 was evaluated at 0.1, 1, 10, 100, 1,000, and 10,000 nM (5‐HT2BR) or at 1, 10, 100, 1,000, and 10,000 nM (5‐HT2AR and 5‐HT2CR). Human 5‐HT2AR and 5‐HT2BR functionality was measured with homogeneous time‐resolved fluorescence quantification of IP1 accumulation in CHO‐K1 cells (in vitro assays 355250 and 355260). Compounds creating a ≥50% inhibition of 5‐HT (5 nM) induced fluorescence response specified receptor antagonist activity. 5‐HT2CR functionality was assessed with [35S] GTPγS for quantification of bound GTPγS. Compounds creating a ≥50% inhibition of 5‐HT (100 nM) induced [35S] GTPγS binding response specified receptor antagonist activity (in vitro assay 355200). AM1476 was evaluated at 0.1, 0.3, 1, 3, 10, 30, and 300 nM (5‐HT2BR) or 1, 10, 100, 1,000, and 10,000 nM (5‐HT2AR and 5‐HT2CR). […] Mouse 5‐HT2BR functionality was measured in a calcium influx assay (Charles River) in CHO‐KI cells expressing the mouse 5‐HT2BR using a calcium sensitive dye and a fluorescence imaging plate reader (FLIPRTETRA) instrument. AM1476 was evaluated at 0.3, 1, 3, 10, 30, 100, 300, and 1,000 nM.

The mark [3] stands for this setting: all three doses, vs vehicle-treated mice seven weeks after BMT.

T1 sequence (P35348 whole entry): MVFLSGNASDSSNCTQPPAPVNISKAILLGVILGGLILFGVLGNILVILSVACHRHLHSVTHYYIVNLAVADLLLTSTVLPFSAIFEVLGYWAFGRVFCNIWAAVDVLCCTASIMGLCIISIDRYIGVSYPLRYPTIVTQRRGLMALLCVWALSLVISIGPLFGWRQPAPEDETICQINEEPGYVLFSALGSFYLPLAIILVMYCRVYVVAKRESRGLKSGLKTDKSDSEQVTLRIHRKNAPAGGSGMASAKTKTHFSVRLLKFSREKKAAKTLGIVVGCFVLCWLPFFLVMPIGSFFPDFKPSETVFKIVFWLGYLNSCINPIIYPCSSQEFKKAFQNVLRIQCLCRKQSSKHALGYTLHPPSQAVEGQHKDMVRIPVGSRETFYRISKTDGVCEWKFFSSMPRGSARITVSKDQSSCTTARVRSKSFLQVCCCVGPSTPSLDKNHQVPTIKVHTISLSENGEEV

The term IC50 denotes the point on the concentration scale where inhibition reaches its midpoint. Usually % Inhibition stands for the drop in the measured response relative to a control, in per cent. On to `C[C@@H]1CN(C(=N)N)N=C1c1ccc(F)cc1O` [AM1476], for which, at Adrenergic α1A (hu), inhibition was half-maximal at 4.34 µM (IC50). The “agonistic activity, Adrenergic α1A” value on Adrenergic α1A (hu) (at 300 µM) was “No significant agonistic activity at 300 µM”. Moreover, the “hydroxyproline levels, lung, vs mice killed three weeks after BMT” value in experiment [1] (10 mg/kg qd) was “below those of mice killed three weeks after BMT”. Also, in experiment [1] (setting [3]), the Ashcroft scores result is reported as “reduced”; the collagen-covered lung area entry is given as “reduced”; the “hydroxyproline content, lung” value is “reduced”. In addition, the “% Inhibition at 10 µM, 5-HT3 (hu)” value in experiment [2] was 14%. The half-maximal inhibitory concentration (IC50) on human 5-HT2AR was more than 10 µM.
